Measured values from publication PMC7758422, “Design, Synthesis, and Antitumor Activities Study of Stapled A4K14-Citropin 1.1 Peptides” (Frontiers in Chemistry, 2020).
Read-outs that look alike come from different tables or passages of the source. Bridge positions count the residues as written; N and C are the ends. Square brackets hold non-standard residues; d marks the D form. Peptide text beside a SMILES is read from it. R8 = C=CCCCCCC[C@@](C)(N)C(=O)O; S5 = C=CCCC[C@](C)(N)C(=O)O

Experiments:
[1] = on-resin all-hydrocarbon stapling by ring-closing metathesis of S5/S5 (i,i+4) or R8/S5 (i,i+7), Grubbs first-generation catalyst (0.45 mmol per 0.15 mmol resin, 3 equiv), then TFA/TIPS/phenol/H2O cleavage and RP-HPLC; conditions: the molecule shown is the open-chain precursor, 21-membered ring, 1,2-dichloroethane, 25.0 °C, 4.0 h, 36 steps
α-chymotrypsin = assay: Protease stability experiment (α-chymotrypsin-mediated degradation); format: in vitro ADME; conditions: for remaining at 12 h, 25 µM: read-out: peptide remaining intact after 12 h of protease exposure; for half-life at 25 µM: α-chymotrypsin 0.5 ng/μl in PBS pH 7.4 with 2 mM CaCl2, 50 μl peptide 1 mM in DMSO + 1,950 μl enzyme, 37°C, 0, 1, 2, 4, 8, 12 h, residual peptide by HPLC, read-out: t1/2 (h), hydrolysis enzyme degradation half-life (converted)
Protocol: Protease Stability Experiment
Fifty microliters peptides in dimethyl sulfoxide (DMSO) (1 mM) and 1,950 μl α-chymotrypsin in phosphate-buffered saline (PBS) (0.5 ng/μl, pH 7.4, containing 2 mM CaCl2) were mixed and incubated at 37°C. After 0, 1, 2, 4, 8, and 12 h, the percent residual peptide was monitored by HPLC.

[2] = system: human prostate cancer cell line C4-2B; format: cell-based
From the text: (§1) Cell Culture and Cell Viability Assay
(§2) The human prostate cancer cell line C4-2B was kindly provided and authenticated by Dr. Leland Chung (Cedars-Sinai Medical Center, Los Angeles, CA, USA). The human lung tumor cell line A549, the human breast tumor cell line MCF-7, and glioma cell line U87 were obtained from Shanghai Cellular Institute of Chinese Academy of Sciences (Shanghai, China). All cell lines were maintained in Dulbecco's modified Eagle's medium (DMEM) involving 10% fetal bovine serum (FBS) and 1% penicillin–streptomycin (PS) (complete DMEM) and was cultured at 37°C with humidified atmosphere of 5% CO2. Cell viability was examined using the cell counting kit (CCK-8) in accordance with manufacturer's protocol. Cells were seeded in 96-well culture plates at a density of 3 ×10^3 cells/well at 37°C for 24 h. Next day, cells were treated without or with various concentrations (0.39, 0.78, 1.56, 3.125, 6.25, 12.5, 25, and 50 μM) of peptides for 96 h after which 10 μl of CCK-8 reagent was added to each well and incubated for further 2 h at 37°C. The optical density (OD) was then measured at a wavelength of 450 nm on a Cell Imaging Multi-Mode Reader (BioTek, Vermont, USA), and the average OD values for each sample were analyzed using Image-J software (NIH, Bethesda, MD, USA). The half maximal inhibitory concentration (IC50) was calculated by GraphPad Prism v7.0 software (San Diego, CA, USA).

[3] = system: human lung tumor cell line A549; format: cell-based
From the text: as §1, §2

glioma cell line U87 = format: cell-based
From the text: as §1, §2

[4] = system: human breast tumor cell line MCF-7; format: cell-based
From the text: as §1, §2

[5] = α-chymotrypsin 0.5 ng/μl in PBS pH 7.4 with 2 mM CaCl2, 37°C, 12 h, HPLC
[6] = CCK-8, 96 h treatment, 0.39-50 μM, OD 450 nm, read-out: IC50 (μM) C4-2B
[7] = CCK-8, 96 h treatment, 0.39-50 μM, OD 450 nm, read-out: IC50 (μM) A549
[8] = CCK-8, 96 h treatment, 0.39-50 μM, OD 450 nm, read-out: IC50 (μM) U87
[9] = CCK-8, 96 h treatment, 0.39-50 μM, OD 450 nm, read-out: IC50 (μM) MCF-7

Compound | ring closure, overall yield [1] | half-life at 25 µM (α-chymotrypsin) | IC50 [2, 6] | IC50 [3, 7] | IC50 (glioma cell line U87; [8]) | IC50 [4, 9] | further results
C=CCCC[C@](C)(NC(=O)CNC(C)=O)C(=O)N[C@@H](Cc1ccccc1)C(=O)N[C@@H](C)C(=O)N[C@H](C(=O)N[C@@](C)(CCCC=C)C(=O)N[C@@H](CCCCNC(=O)OC(C)(C)C)C(=O)N[C@@H](CCCCNC(=O)OC(C)(C)C)C(=O)N[C@H](C(=O)N[C@@H](C)C(=O)N[C@@H](COC(C)(C)C)C(=O)N[C@H](C(=O)N[C@H](C(=O)N[C@@H](CCCCNC(=O)OC(C)(C)C)C(=O)NCC(=O)N[C@@H](CC(C)C)C(N)=O)[C@@H](C)CC)C(C)C)C(C)C)C(C)C | 63 % yield |  |  |  |  |  | 
C=CCCC[C@](C)(NC(=O)[C@@H](NC(=O)[C@H](C)NC(=O)[C@H](Cc1ccccc1)NC(=O)[C@H](CC(C)C)NC(=O)CNC(C)=O)C(C)C)C(=O)N[C@@H](CCCCNC(=O)OC(C)(C)C)C(=O)N[C@@H](CCCCNC(=O)OC(C)(C)C)C(=O)N[C@H](C(=O)N[C@@](C)(CCCC=C)C(=O)N[C@@H](COC(C)(C)C)C(=O)N[C@H](C(=O)N[C@H](C(=O)N[C@@H](CCCCNC(=O)OC(C)(C)C)C(=O)NCC(=O)N[C@@H](CC(C)C)C(N)=O)[C@@H](C)CC)C(C)C)C(C)C | 71 % yield |  |  |  |  |  | 
C=CCCC[C@](C)(NC(=O)[C@H](C)NC(=O)[C@@H](NC(=O)[C@H](CCCCNC(=O)OC(C)(C)C)NC(=O)[C@H](CCCCNC(=O)OC(C)(C)C)NC(=O)[C@@H](NC(=O)[C@@H](NC(=O)[C@H](C)NC(=O)[C@H](Cc1ccccc1)NC(=O)[C@H](CC(C)C)NC(=O)CNC(C)=O)C(C)C)[C@@H](C)CC)C(C)C)C(=O)N[C@H](C(=O)N[C@H](C(=O)N[C@@H](CCCCNC(=O)OC(C)(C)C)C(=O)N[C@@](C)(CCCC=C)C(=O)N[C@@H](CC(C)C)C(N)=O)[C@@H](C)CC)C(C)C | 62 % yield |  |  |  |  |  | 
C=CCCC[C@](C)(NC(=O)[C@H](C)NC(=O)[C@H](Cc1ccccc1)NC(=O)[C@H](CC(C)C)NC(=O)CNC(C)=O)C(=O)N[C@H](C(=O)N[C@@H](CCCCNC(=O)OC(C)(C)C)C(=O)N[C@@H](CCCCNC(=O)OC(C)(C)C)C(=O)N[C@@](C)(CCCC=C)C(=O)N[C@@H](C)C(=O)N[C@@H](COC(C)(C)C)C(=O)N[C@H](C(=O)N[C@H](C(=O)N[C@@H](CCCCNC(=O)OC(C)(C)C)C(=O)NCC(=O)N[C@@H](CC(C)C)C(N)=O)[C@@H](C)CC)C(C)C)[C@@H](C)CC | 62 % yield |  |  |  |  |  | 
C=CCCC[C@](C)(NC(=O)[C@H](CCCCNC(=O)OC(C)(C)C)NC(=O)[C@H](CCCCNC(=O)OC(C)(C)C)NC(=O)[C@@H](NC(=O)[C@@H](NC(=O)[C@H](C)NC(=O)[C@H](Cc1ccccc1)NC(=O)[C@H](CC(C)C)NC(=O)CNC(C)=O)C(C)C)[C@@H](C)CC)C(=O)N[C@@H](C)C(=O)N[C@@H](COC(C)(C)C)C(=O)N[C@H](C(=O)N[C@@](C)(CCCC=C)C(=O)N[C@@H](CCCCNC(=O)OC(C)(C)C)C(=O)NCC(=O)N[C@@H](CC(C)C)C(N)=O)C(C)C | 66 % yield |  |  |  |  |  | 
CC[C@H](C)[C@H](NC(=O)[C@@H](NC(=O)[C@H](CO)NC(=O)[C@H](C)NC(=O)[C@@H](NC(=O)[C@H](CCCCN)NC(=O)[C@H](CCCCN)NC(=O)[C@]1(C)CCCC=CCCC[C@](C)(NC(=O)CNC(C)=O)C(=O)N[C@@H](Cc2ccccc2)C(=O)N[C@@H](C)C(=O)N[C@@H](C(C)C)C(=O)N1)C(C)C)C(C)C)C(=O)N[C@@H](CCCCN)C(=O)NCC(=O)N[C@@H](CC(C)C)C(N)=O [A4K14-citropin1.1-1] (Ac-G[S5]FAV[S5]KKVASVIKGL-NH2; staple 2-6) |  | > 10 h | 8.94 µM | 12.5 µM | 11.9 µM | 11.3 µM | remaining at 12 h, 25 µM (α-chymotrypsin; [5]): > 85%
CC[C@H](C)[C@H](NC(=O)[C@@H](NC(=O)[C@H](CO)NC(=O)[C@H](C)NC(=O)[C@]1(C)CCCC=CCCC[C@](C)(NC(=O)[C@H](C)NC(=O)[C@H](Cc2ccccc2)NC(=O)[C@H](CC(C)C)NC(=O)CNC(C)=O)C(=O)N[C@@H]([C@@H](C)CC)C(=O)N[C@@H](CCCCN)C(=O)N[C@@H](CCCCN)C(=O)N1)C(C)C)C(=O)N[C@@H](CCCCN)C(=O)NCC(=O)N[C@@H](CC(C)C)C(N)=O [A4K14-citropin1.1-2] (Ac-GLFA[S5]IKK[S5]ASVIKGL-NH2; staple 5-9) |  | 1.72 h |  |  |  |  | IC50 ([2]; 96 h): 10.1 µM; IC50 ([3]; 96 h): 12.6 µM; IC50 (glioma cell line U87; 96 h): 14.8 µM; IC50 ([4]; 96 h): 12.7 µM
CC[C@H](C)[C@H](NC(=O)[C@@H](NC(=O)[C@H](CO)NC(=O)[C@]1(C)CCCC=CCCC[C@](C)(NC(=O)[C@@H](NC(=O)[C@H](C)NC(=O)[C@H](Cc2ccccc2)NC(=O)[C@H](CC(C)C)NC(=O)CNC(C)=O)C(C)C)C(=O)N[C@@H](CCCCN)C(=O)N[C@@H](CCCCN)C(=O)N[C@@H](C(C)C)C(=O)N1)C(C)C)C(=O)N[C@@H](CCCCN)C(=O)NCC(=O)N[C@@H](CC(C)C)C(N)=O [A4K14-citropin1.1-3] (Ac-GLFAV[S5]KKV[S5]SVIKGL-NH2; staple 6-10) |  | 0.61 h | 17.9 µM | 12.1 µM | 11.9 µM | 11.9 µM | 
CC[C@H](C)[C@H](NC(=O)[C@@H](NC(=O)[C@H](C)NC(=O)[C@H](Cc1ccccc1)NC(=O)[C@H](CC(C)C)NC(=O)CNC(C)=O)C(C)C)C(=O)N[C@@H](CCCCN)C(=O)N[C@@H](CCCCN)C(=O)N[C@@]1(C)CCCC=CCCC[C@@](C)(C(=O)N[C@@H](CCCCN)C(=O)NCC(=O)N[C@@H](CC(C)C)C(N)=O)NC(=O)[C@H](C(C)C)NC(=O)[C@H](CO)NC(=O)[C@H](C)NC1=O [A4K14-citropin1.1-4] (Ac-GLFAVIKK[S5]ASV[S5]KGL-NH2; staple 9-13) |  | > 10 h | 8.9 µM | 10.5 µM | 7.28 µM | 10.5 µM | remaining at 12 h, 25 µM (α-chymotrypsin; [5]): > 85%
CC[C@H](C)[C@H](NC(=O)[C@@H](NC(=O)[C@H](C)NC(=O)[C@H](Cc1ccccc1)NC(=O)[C@H](CC(C)C)NC(=O)CNC(C)=O)C(C)C)C(=O)N[C@@H](CCCCN)C(=O)N[C@@H](CCCCN)C(=O)N[C@H](C(=O)N[C@@H](C)C(=O)N[C@@]1(C)CCCC=CCCC[C@@](C)(C(=O)N[C@@H](CC(C)C)C(N)=O)NC(=O)[C@H](CCCCN)NC(=O)[C@H]([C@@H](C)CC)NC(=O)[C@H](C(C)C)NC1=O)C(C)C [A4K14-citropin1.1-5] (Ac-GLFAVIKKVA[S5]VIK[S5]L-NH2; staple 11-15) |  | 1.83 h | 11.9 µM | 9.9 µM | 8.23 µM | 12.4 µM | 
CC[C@H](C)[C@@H]1NC(=O)[C@H](C(C)C)NC(=O)[C@H](C)NC(=O)[C@H](Cc2ccccc2)NC(=O)[C@](C)(NC(=O)CNC(C)=O)CCCCCCC=CCCC[C@@](C)(C(=O)N[C@@H](C)C(=O)N[C@@H](CO)C(=O)N[C@H](C(=O)N[C@H](C(=O)N[C@@H](CCCCN)C(=O)NCC(=O)N[C@@H](CC(C)C)C(N)=O)[C@@H](C)CC)C(C)C)NC(=O)[C@H](CCCCN)NC(=O)[C@H](CCCCN)NC1=O [A4K14-citropin1.1-6] (Ac-G[R8]FAVIKK[S5]ASVIKGL-NH2; staple 2-9) |  | 0.57 h | 35.8 µM | 30.2 µM | 34.5 µM | 23.8 µM | 
CC(=O)NCC(=O)N[C@@H](CC(C)C)C(=O)N[C@@H](Cc1ccccc1)C(=O)N[C@@H](C)C(=O)N[C@H](C(=O)N[C@]1(C)CCCCCCC=CCCC[C@@](C)(C(=O)N[C@@H](CCCCN)C(=O)NCC(=O)N[C@@H](CC(C)C)C(N)=O)NC(=O)[C@H](C(C)C)NC(=O)[C@H](CO)NC(=O)[C@H](C)NC(=O)[C@H](C(C)C)NC(=O)[C@H](CCCCN)NC(=O)[C@H](CCCCN)NC1=O)C(C)C [A4K14-citropin1.1-7] (Ac-GLFAV[R8]KKVASV[S5]KGL-NH2; staple 6-13) |  | 0.58 h | 10.2 µM | 16.4 µM | 14.7 µM | 12.1 µM | 
Ac-GLFAVIKKVASVIKGL-NH2 [A4K14-citropin1.1, reference compound] |  | 0.63 h | 29.1 µM | 15 µM | 14.8 µM | 14.2 µM | peptide remaining intact after 12 h of protease exposure (α-chymotrypsin; [5]): degraded completely
